Experimental findings from ChEMBL document CHEMBL1828549, “Novel C-4'' modified azithromycin analogs with remarkably enhanced activity against erythromycin-resistant Streptococcus pneumoniae: the synthesis and antimicrobial evaluation” (2011) are described below.

The structures appear in SMILES notation. Values after ≈ are worked out from the molar mass of the structure shown.

For assay [1], the system named is Streptococcus pneumoniae. In words: Antibacterial activity against erythromycin-susceptible Streptococcus pneumoniae ATCC 49619 by the broth microdilution method. Format: functional.
The subject of assay [2] is Streptococcus pneumoniae. The assay is described as follows: Antibacterial activity against erythromycin-resistant Streptococcus pneumoniae B1 expressing erm gene by the broth microdilution method. It is filed as functional.
For assay [3], the system named is Streptococcus pneumoniae. The assay is described as follows: Antibacterial activity against erythromycin-resistant Streptococcus pneumoniae A22072 expressing mef gene by the broth microdilution method. It is filed as functional.
Assay [4] concerns Streptococcus pneumoniae. The assay is described as follows: Antibacterial activity against erythromycin-resistant Streptococcus pneumoniae AB11 expressing erm and mef gene by the broth microdilution method. Format: functional.
Assay [5] has as its system Staphylococcus aureus. In words: Antibacterial activity against erythromycin-susceptible Staphylococcus aureus ATCC 25923 by the broth microdilution method. Format: functional.
For assay [6], the system named is Staphylococcus aureus. The assay is described as follows: Antibacterial activity against penicillin-resistant Staphylococcus aureus by the broth microdilution method. Format: functional.
For assay [7], the system named is Staphylococcus aureus. The assay is described as follows: Antibacterial activity against […] Staphylococcus aureus ATCC 29213 by the broth microdilution method. Format: functional.
The test system of assay [8] is Streptococcus pneumoniae. The assay is described as follows: Ratio of erythromycin-A MIC to compound MIC for erythromycin-resistant Streptococcus pneumoniae A22072 expressing mef gene. It is filed as functional.
The subject of assay [9] is Streptococcus pneumoniae. In words: Ratio of azithromycin MIC to compound MIC for erythromycin-resistant Streptococcus pneumoniae A22072 expressing mef gene. Format: functional.
Assay [10] has as its system Streptococcus pneumoniae. In words: Ratio of MIC for Streptococcus pneumoniae AB11 expressing erm and mef gene to MIC of reference compound for the same strain.
Assay [11] concerns Streptococcus pneumoniae. In words: Ratio of MIC for erythromycin-resistant Streptococcus pneumoniae B1 expressing erm gene to MIC of reference compound for the same strain.

Turning to `CC[C@H]1OC(=O)[C@H](C)[C@@H](O[C@H]2C[C@@](C)(OC)[C@@H](OC(=O)NCCCCNC(=O)c3cc([N+](=O)[O-])cc([N+](=O)[O-])c3)[C@H](C)O2)[C@H](C)[C@@H](O[C@@H]2O[C@H](C)C[C@H](N(C)C)[C@H]2O)[C@](C)(O)C[C@@H](C)CN(C)[C@H](C)[C@H]2OC(=O)O[C@@]21C`, the MIC was determined as 0.12 mg/L (≈ 0.111 µM) in assay [1]; 1 mg/L (≈ 0.923 µM) in [2]; 0.12 mg/L (≈ 0.111 µM) in [3]; 8 mg/L (≈ 7.39 µM) in assay [4]; 2 mg/L (≈ 1.85 µM) in assay [5]; 16 mg/L (≈ 14.8 µM) in [6]. Further, the MIC in [7] was 4 mg/L (≈ 3.69 µM). Besides, the Ratio in assay [8] was determined as 64; in assay [9], 32; in assay [10] it was 32; in [11], 128.

Turning to `CC[C@H]1OC(=O)[C@H](C)[C@@H](O[C@H]2C[C@@](C)(OC)[C@@H](OC(=O)NCCNC(=O)c3cc([N+](=O)[O-])cc([N+](=O)[O-])c3)[C@H](C)O2)[C@H](C)[C@@H](O[C@@H]2O[C@H](C)C[C@H](N(C)C)[C@H]2O)[C@](C)(O)C[C@@H](C)CN(C)[C@H](C)[C@H]2OC(=O)O[C@@]21C`, the MIC in assay [1] turned out to be 0.12 mg/L (≈ 0.114 µM); in assay [2] it was 1 mg/L (≈ 0.948 µM); in assay [3], 0.12 mg/L (≈ 0.114 µM); in assay [4], 8 mg/L (≈ 7.58 µM); in assay [5], 16 mg/L (≈ 15.2 µM); in assay [6], 1 mg/L (≈ 0.948 µM). This compound also showed a minimum inhibitory concentration (MIC) in [7] of 8 mg/L (≈ 7.58 µM). Further, the Ratio is reported as 64 in assay [8], 32 in assay [9], 32 in assay [10] and 128 in assay [11].

With `CC[C@H]1OC(=O)[C@H](C)[C@@H](O[C@H]2C[C@@](C)(OC)[C@@H](OC(=O)NCCNC(=O)c3ccc([N+](=O)[O-])cc3)[C@H](C)O2)[C@H](C)[C@@H](O[C@@H]2O[C@H](C)C[C@H](N(C)C)[C@H]2O)[C@](C)(O)C[C@@H](C)CN(C)[C@H](C)[C@H]2OC(=O)O[C@@]21C`, the MIC in [1] is 0.5 mg/L (≈ 0.495 µM); in assay [2], 4 mg/L (≈ 3.96 µM); in [3], 0.5 mg/L (≈ 0.495 µM); in assay [4], 64 mg/L (≈ 63.4 µM); in assay [5] it was 4 mg/L (≈ 3.96 µM); in assay [6], 1 mg/L (≈ 0.99 µM). Further, in [7], the MIC stood at 16 mg/L (≈ 15.8 µM).

With `CC[C@H]1OC(=O)[C@H](C)[C@@H](O[C@H]2C[C@@](C)(OC)[C@@H](OC(=O)NNC(=O)c3ccc(C)cc3)[C@H](C)O2)[C@H](C)[C@@H](O[C@@H]2O[C@H](C)C[C@H](N(C)C)[C@H]2O)[C@](C)(O)C[C@@H](C)CN(C)[C@H](C)[C@H]2OC(=O)O[C@@]21C`, the MIC in assay [1] came out at 1 mg/L (≈ 1.05 µM); in [2] it was 2 mg/L (≈ 2.1 µM); in assay [3], 0.12 mg/L (≈ 0.126 µM); in assay [4], 16 mg/L (≈ 16.8 µM); in assay [5], 4 mg/L (≈ 4.21 µM); in [6], 4 mg/L (≈ 4.21 µM). Also, in assay [7], the MIC worked out at 4 mg/L (≈ 4.21 µM). The Ratio is given as 64 in assay [8], 32 in assay [9], 16 in assay [10] and 64 in assay [11].
